In the experiment the target is T1, Cathepsin K (Oryctolagus cuniculus, UniProt P43236).
T1 sequence (P43236 whole entry): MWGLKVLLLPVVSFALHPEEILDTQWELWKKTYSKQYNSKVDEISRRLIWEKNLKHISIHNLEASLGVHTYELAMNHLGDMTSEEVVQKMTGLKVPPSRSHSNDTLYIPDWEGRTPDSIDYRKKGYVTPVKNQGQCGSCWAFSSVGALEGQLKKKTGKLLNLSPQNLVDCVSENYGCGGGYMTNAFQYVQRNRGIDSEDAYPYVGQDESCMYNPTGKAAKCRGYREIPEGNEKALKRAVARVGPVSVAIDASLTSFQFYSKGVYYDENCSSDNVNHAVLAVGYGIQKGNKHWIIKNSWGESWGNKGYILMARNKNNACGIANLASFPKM
Nature of the experiment: In Vitro Enzyme Inhibition Assay and Bone-Resorption Assay. The settings on record: pH 5.5; 22 °C. The protocol: Prior to the addition of substrate, different concentrations of the inhibitor ranging from 100 uM to 0.2 nM were preincubated for 15 min with enzyme to allow the establishment of the enzyme-inhibitor complex. The proteolytic cleavage of N-acyl aminocoumarins by cathepsins was conducted in 96-well plate format and the plate read using a Spectramax (Molecular Devices) plate reader. The excitation wavelength was 355 nm and the emission wavelength was 460 nm for peptidyl-AMC substrates. The percent inhibition of the reaction was calculated from a control reaction containing only vehicle. IC50 curves were generated by fitting percent inhibition values to a four parameter logistic model (SOFTMAX PRO, Molecular Devices). EC50/IC50 values were obtained from bone-resorption assay. The long bones were aseptically isolated from a 10-day-old New Zealand White […] (Covance Research Products, Denver, PA) and the soft tissue removed.

For orientation: EC50 means the concentration that produces a half-maximal response. A higher EC50 goes with a need for much substance.

Several values for one entry are separate records, joined by “and”; a condition that tells them apart may be missing. Equal entries are not always repeated.

Turning to `CSc1ccc(-c2c[n+]([O-])ccc2[C@@H]2CCC(F)(F)C[C@H]2C(=O)NCC#N)cc1` [4-[(1R,2R)-2-[(cyanomethyl)carbamoyl]-4,4-difluorocyclohexyl]-3-[4-(methylsulfanyl)phenyl]-1-pyridin-1-olate], the EC50 stood at 75 nM.
`CSc1ccc(-c2cn(C)nc2[C@@H]2CCC(F)(F)C[C@H]2C(=O)NCC#N)cc1`: the EC50 came out at 41 nM.
With `CSc1ccc(-c2ccccc2[C@@H]2CCC(F)(F)C[C@H]2C(=O)NCC#N)cc1` [(1R,2R)-N-(cyanomethyl)-5,5-difluoro-2-{2-[4-(methylsulfanyl)phenyl]phenyl}cyclohexane-1-carboxamide], the EC50 was 16 nM and 38 nM.
`N#CCNC(=O)[C@@H]1CC(F)(F)CC[C@H]1c1cnccc1-c1ccc(SCF)cc1` [(1R,2R)-N-(cyanomethyl)-5,5-difluoro-2-(4-{4-[(fluoromethyl)sulfanyl]phenyl}pyridin-3-yl)cyclohexane-1-carboxamide] gave an EC50 of 58 nM. This counts as double-digit nanomolar.
On to `CSc1ccc(-c2nc(C)sc2[C@@H]2CCC(F)(F)C[C@H]2C(=O)NCC#N)cc1` [(1R,2R)-N-(cyanomethyl)-5,5-difluoro-2-{2-methyl-4-[4-(methylsulfanyl)phenyl]-1,3-thiazol-5-yl}cyclohexane-1-carboxamide], for which a half-maximal response (EC50) required 17 nM.
`CSc1ccc(-c2c([C@@H]3CCC(F)(F)C[C@H]3C(=O)NCC#N)nnn2Cc2ccccc2)cc1` [(1R,2R)-2-{1-benzyl-5-[4-(methylsulfanyl)phenyl]-1H-1,2,3-triazol-4-yl}-N-(cyanomethyl)-5,5-difluorocyclohexane-1-carboxamide]: the EC50 is 33 nM.
As to `CSc1ccc(-c2cnccc2[C@@H]2CCC(F)(F)C[C@H]2C(=O)NCC#N)cc1` [(1R,2R)-N-(cyanomethyl)-5,5-difluoro-2-{3-[4-(methylsulfanyl)phenyl]pyridin-4-yl}cyclohexane-1-carboxamide], the EC50 is 18 nM.
Molecule `CSc1ccc(-c2c([C@@H]3CCC(F)(F)C[C@H]3C(=O)NCC#N)cc[nH]c2=O)cc1` [(1R,2R)-N-(cyanomethyl)-5,5-difluoro-2-{3-[4-(methylsulfanyl)phenyl]-2-oxo-1,2-dihydropyridin-4-yl}cyclohexane-1-carboxamide] showed an EC50 of 84 nM.
Molecule `CSc1ccc(-c2c[nH]c(=O)cc2[C@@H]2CCC(F)(F)C[C@H]2C(=O)NCC#N)cc1` [(1R,2R)-N-(cyanomethyl)-5,5-difluoro-2-{5-[4-(methylsulfanyl)phenyl]-2-oxo-1,2-dihydropyridin-4-yl}cyclohexane-1-carboxamide] gave an EC50 of 20 nM.
`CSc1ccc(-c2ncccc2[C@@H]2CCC(F)(F)C[C@H]2C(=O)NCC#N)cc1` [(1R,2R)-N-(cyanomethyl)-5,5-difluoro-2-{2-[4-(methylsulfanyl)phenyl]pyridin-3-yl}cyclohexane-1-carboxamide] registered an EC50 of 10 nM.
